Data from patent US20110045101A1, “FUNGICIDAL SUBSTITUTED AZOLES” (E.I. Du Pont De Nemours and Company, priority 2009, published 2011).
Marks after values point to notes of the source that are not given here.

How the values were obtained:
Format in all cases: in vivo
Conditions in all cases: 100 = 100% disease control
Botrytis cinerea = assay: Test C: tomato Botrytis on tomato seedlings, sprayed the day before inoculation, visual disease rating
Description: General protocol for preparing test suspensions for Tests A-J: The test compounds were first dissolved in acetone in an amount equal to 3% of the final volume and then suspended at the desired concentration (in ppm) in acetone and purified water (50/50 mix) containing 250 ppm of the surfactant Trem® 014 (polyhydric alcohol esters). The resulting test suspensions were then used in tests A-J. Spraying a 200 ppm test suspension to the point of run-off on the test plants was the equivalent of a rate of 500 g/ha. […] The test suspension was sprayed to the point of run-off on tomato seedlings. […] A dash (-) indicates no test results. All results are for 200 ppm except where followed by “*”, which indicates 40 ppm.

Alternaria solani = assay: Test D: tomato early blight, sprayed the day before inoculation, visual disease rating
Description: (§1) General protocol for preparing test suspensions for Tests A-J: The test compounds were first dissolved in acetone in an amount equal to 3% of the final volume and then suspended at the desired concentration (in ppm) in acetone and purified water (50/50 mix) containing 250 ppm of the surfactant Trem® 014 (polyhydric alcohol esters). The resulting test suspensions were then used in tests A-J. Spraying a 200 ppm test suspension to the point of run-off on the test plants was the equivalent of a rate of 500 g/ha. […] The test suspension was sprayed to the point of run-off on wheat seedlings. […] A dash (-) indicates no test results. All results are for 200 ppm except where followed by “*”, which indicates 40 ppm.

Septoria nodorum = assay: Test F: wheat glume blotch on wheat seedlings, sprayed the day before inoculation, visual disease rating
Description: as §1

Septoria tritici = assay: Test G: wheat leaf blotch on wheat seedlings, sprayed the day before inoculation, visual disease rating
Description: General protocol for preparing test suspensions for Tests A-J: The test compounds were first dissolved in acetone in an amount equal to 3% of the final volume and then suspended at the desired concentration (in ppm) in acetone and purified water (50/50 mix) containing 250 ppm of the surfactant Trem® 014 (polyhydric alcohol esters). The resulting test suspensions were then used in tests A-J. Spraying a 200 ppm test suspension to the point of run-off on the test plants was the equivalent of a rate of 500 g/ha. […] The test suspension was sprayed to the point of run-off on wheat seedlings. The following day the seedlings were inoculated with a spore suspension of Septoria tritici (the causal agent of wheat leaf blotch) and incubated in saturated atmosphere at 24° C. for 48 h, and then moved to a growth chamber at 20° C. for 19 days, after which time visual disease ratings were made. […] A dash (-) indicates no test results. All results are for 200 ppm except where followed by “*”, which indicates 40 ppm.

[1] = test system: Puccinia recondita f. sp. tritici; assay: Test I: wheat leaf rust on wheat seedlings, sprayed the day before inoculation, visual disease rating
Description: as §1

[2] = test system: Erysiphe graminis f. sp. tritici; assay: Test J: wheat powdery mildew on wheat seedlings, sprayed the day before inoculation, visual disease rating
Description: as §1

[3] = 200 ppm, 0 = no control relative to controls
[4] = 40 ppm (marked *), 0 = no control

SMILES	Test C disease control rating (Botrytis cinerea; [3])	Test D disease control rating (Alternaria solani; [3])	Test F disease control rating (Septoria nodorum; [3])	Test G disease control rating (Septoria tritici; [3])	Test I disease control rating [1, 3]	Test J disease control rating [2, 3]	Test C disease control rating (Botrytis cinerea; 200 ppm, 0 = no control)	Test D disease control rating (Alternaria solani; 200 ppm, 0 = no control)	Test F disease control rating (Septoria nodorum; 200 ppm, 0 = no control)	Test G disease control rating (Septoria tritici; 200 ppm, 0 = no control)	Test I disease control rating ([1]; 200 ppm, 0 = no control)	Test J disease control rating ([2]; 200 ppm, 0 = no control)	further results
COc1cc(F)c(-c2c(-c3ccc(Cl)cc3)c(C)nn2C)c(F)c1 [compound 77]	98%	100%	82%	97%	99%	100%							
Fc1ccc(-n2c(Br)nc(Cl)c2-c2c(F)cccc2F)cc1 [compound 72]	96%	100%	92%	97%	99%	100%							
COc1ccc(Cn2cnc(Cl)c2-c2c(F)cccc2F)cc1 [compound 194]							99%	95%	73%	97%	100%	96%	
COc1ccc(F)c(-c2c(Cl)nc(Br)n2-c2ccc(C)cc2)c1F [compound 281]							100%	100%	97%	96%	100%	100%	
COc1cc(F)c(-n2c(Cl)nc(Cl)c2-c2ccc(Cl)cc2)c(F)c1 [compound 297]													Test C disease control rating (Botrytis cinerea; [4]): 99* %; Test D disease control rating (Alternaria solani; [4]): 100* %; Test F disease control rating (Septoria nodorum; [4]): 99* %; Test G disease control rating (Septoria tritici; [4]): 94* %; Test I disease control rating [1, 4]: 99* %; Test J disease control rating [2, 4]: 100* %
Cc1ccc(-n2c(Br)nc(Cl)c2-c2c(F)ccc(F)c2Cl)cc1 [compound 197]							99%	99%	0%	93%	100%	100%	
Cc1ccc(F)c(-c2c(Cl)nc(C)n2-c2ccc(Cl)cc2)c1F [compound 107]	96%	100%	100%	96%	100%	100%							
Fc1cc(F)cc(-n2c(Br)nc(Cl)c2-c2c(F)cccc2F)c1 [compound 54]	92%	24%	0%	87%	99%	91%							
Cc1nc(Cl)c(-c2c(F)cccc2F)n1-c1ccc(F)cc1 [compound 83]	97%	100%	99%	98%	100%	100%							
Cc1nc(Cl)c(-c2cc(F)ccc2F)n1-c1ccc(Cl)cc1 [compound 93]	97%	100%	100%	99%	98%	100%							
Cc1nn(C)c(-c2c(F)cc(F)cc2F)c1-c1ccc(Cl)cc1 [compound 69]	74%	99%	0%	25%	0%	97%							
COc1cc(F)c(-c2c(C)ncn2-c2ccccn2)c(F)c1 [compound 250]							99%	100%	0%	83%	99%	94%	
Cc1nc(Cl)c(-c2c(F)cccc2F)n1-c1cc(F)cc(F)c1 [compound 73]	100%	100%	60%	87%	100%	100%							
COc1cc(F)c(-c2c(C)nc(C)n2-c2ccc(Cl)c(F)c2)c(F)c1 [compound 44]													Test C disease control rating (Botrytis cinerea; 40 ppm (marked *)): 99* %; Test D disease control rating (Alternaria solani; 40 ppm (marked *)): 100* %; Test F disease control rating (Septoria nodorum; 40 ppm (marked *)): 40* %; Test G disease control rating (Septoria tritici; 40 ppm (marked *)): 92* %; Test I disease control rating ([1]; 40 ppm (marked *)): 99* %; Test J disease control rating ([2]; 40 ppm (marked *)): 98* %
CCc1nc(Cl)c(-c2c(F)cccc2F)n1-c1ccc(Cl)cc1 [compound 108]													Test C disease control rating (Botrytis cinerea; 40 ppm (marked *)): 100* %; Test D disease control rating (Alternaria solani; 40 ppm (marked *)): 100* %; Test F disease control rating (Septoria nodorum; 40 ppm (marked *)): 0* %; Test G disease control rating (Septoria tritici; 40 ppm (marked *)): 74* %; Test I disease control rating ([1]; 40 ppm (marked *)): 98* %; Test J disease control rating ([2]; 40 ppm (marked *)): 99* %
Fc1cc(-n2c(Cl)nc(Cl)c2-c2cccnc2Cl)ccc1Cl [compound 458]	96%	16%	0%	92%	95%	89%							
Fc1cc(F)c(-n2c(Br)nc(Cl)c2-c2ccc(Cl)cc2)c(F)c1 [compound 131]													Test C disease control rating (Botrytis cinerea; 40 ppm (marked *)): 90* %; Test D disease control rating (Alternaria solani; 40 ppm (marked *)): 99* %; Test F disease control rating (Septoria nodorum; 40 ppm (marked *)): 0* %; Test G disease control rating (Septoria tritici; 40 ppm (marked *)): 85* %; Test I disease control rating ([1]; 40 ppm (marked *)): 0* %; Test J disease control rating ([2]; 40 ppm (marked *)): 48* %
Cc1nc(Cl)c(-c2c(F)cccc2F)n1Cc1ccc(Cl)cc1 [compound 128]	97%	96%	96%	93%	97%	100%							
Cc1nc(Cl)c(-c2c(F)cccc2F)n1-c1ccc(OC(F)(F)F)cc1 [compound 81]	81%	100%	69%	93%	98%	100%							
Cc1nc(Cl)c(-c2ccc(F)cc2Cl)n1-c1ccc(F)cc1 [compound 187]							99%	100%	94%	97%	100%	100%	
CCc1ccc(-n2c(Br)nc(Cl)c2-c2c(F)ccc(OC)c2F)cc1 [compound 441]	97%	99%	0%	97%	97%	99%							
Fc1cccc(F)c1-c1c(Cl)nc(Br)n1-c1ccc(C(F)(F)F)cc1 [compound 84]	0%	99%	0%	88%	91%	99%							
Cc1ncn(-c2ccc(Cl)c(F)c2)c1-c1c(Cl)cncc1Cl [compound 255]							99%	0%	0%	95%	86%	91%	
Fc1cccc(Cl)c1-c1c(Cl)nc(Br)n1-c1ccc(Cl)cc1 [compound 52]	84%	100%	0%	97%	99%	100%							
Cc1ccc(-n2cnc(Cl)c2-c2c(F)cccc2F)cc1F [compound 161]							99%	71%	0%	1%	80%	100%	
Fc1cc(-n2c(Br)nc(Cl)c2-c2c(F)cccc2F)ccc1Cl [compound 223]							99%	100%	60%	98%	99%	100%	
